Laboratory results reported in article PMC2074590 (British Journal of Cancer, 1996).
“Also recorded” adds a separate entry of the source. Where two headings read alike, the source gives them in different places.

Key:
[1] = Serum concentrations of ICI 182780 by radioimmunoassay (pharmacokinetics of monthly i.m. depot); type: in vivo, human; conditions: for Cmax: human, serum, intramuscular; for Cmax / AUC at month 6 / AUC on entry: 250 mg;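 on AUC on entry: AUC over the first monthly dosing interval after the first injection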
Experimental: (§1) Bridsh Journal of Cancer (1996) 74, 300-308 ? […] The agent was administered as a monthly depot intramuscular injection. […] The study was approved by the ethics committees of each clinical centre. Patients were eligible for the study if they were post- menopausal and age less than 81 years, with histologically verified breast cancer. […] Patients were excluded if they had serious intercurrent disease, a WHO performance status of greater than 2, and a life expectancy of less than 3 months or had received previous cytotoxic chemotherapy for advanced breast cancer. […] Patients 5-19 received 250 mg month-1 i.m. from the outset. […] Tumour response to therapy was evaluated according to UICC criteria (Hayward et al., 1977). To qualify for the 'no change' category, tumour growth had to stabilise for more than 6 months (Howell et al., 1988; Robertson et al., 1989). Body weight was recorded at each monthly review in the majority of patients. […] The procedure was applied after solid base clean up of a diethyl ether/hexane extract of serum. The study limit of quantification was 0.68 ng ml-'. […] Gonadotrophins follicle-stimulating hormone and lutenising hormone (FSH and LH) and SHBG were measured by RIA in the Regional Radioimmunoassay Laboratory of the University Hospital of South Manchester. Prolactin was measured by immunoradiometric assay using reagents supplied by Netria. Total cholesterol levels were determined enzymatically using a commercially available reagent (Diamed, Switzerland). Triglyceride levels were determined by the glyceryl phosphate oxidase-peroxidase-antiperox- idase method using a commercially available kit (Boehringer Mannheim, Germany). High-density lipoprotein (HDL) cholesterol levels were measured after pretreatment of the serum samples with buffered magnesium phosphotungstate, which selectively precipitates low-density lipoprotein (LDL) cholesterol, very low-density lipoprotein (VLDL) cholesterol and chylomicrons, leaving HDL cholesterol in the super- natant. Serum levels of LDL cholesterol were calculated using the Friedewald equation (Friedewald et al., 1972). Endometrial assessment Endometrial thickness was measured in transverse section by transabdominal ultrasound using a Siemens Sonoline SL2 with a 3.5 MHz sector probe. Baseline and repeat scans at 3-6 monthly intervals were performed in five patients. […] Pharmacokinectic data were analysed using para- metric statistics. Data relating to body weight, serum gonadotrophin, SHBG and lipid levels were analysed using non-parametric statistics. The null hypothesis was rejected at a probability level of P<0.05. […] However, samples were not available between day 2 and day 8.

[2] = Side-effects, local and systemic drug tolerability; type: in vivo, human
Experimental: as §1

[3] = patient 13 (progressive disease)

## C[C@]12CC[C@@H]3c4ccc(O)cc4C[C@@H](CCCCCCCCC[S+]([O-])CCCC(F)(F)C(F)(F)F)[C@H]3[C@@H]1CC[C@@H]2O (stereo partly shown) [ICI 182780, 7a-[9(4,4,5,5,pentafluoropentyl-sulphinyl)nonyl]oestra-1 ,3,5,(10)-triene-3,17,B-diol]
[1]; patient 17 (no change), read-out: Cmax at month 6
  Cmax: 14.9 ng/mL
[1]; patient 17 (no change), read-out: Cmax on entry
  Cmax: 9.5 ng/mL
[1]; patient 18 (no change), read-out: Cmax at month 6
  Cmax: 10.2 ng/mL
[1]; patient 18 (no change), read-out: Cmax on entry
  Cmax: 10.3 ng/mL
[1]; patient 19 (no change), read-out: Cmax at month 6
  Cmax: 17.2 ng/mL
[1]; patient 19 (no change), read-out: Cmax on entry
  Cmax: 11 ng/mL
[1]; in vivo
  Difference in median Cmax and AUC between responders and non-responders: no significant difference
[1]; month 6 vs month 1, 250 mg
  Increase in AUC on multiple dosing: 1.5 fold
  Increase in Cmax on multiple dosing: 1.2 fold
[1]; monthly depot i.m., day 28
  Serum level at day 28 relative to threshold: above the projected therapeutic threshold
[1]; no change patients
  Median AUC at month 6: 190.9 ng·days/mL
  Median AUC on entry: 131.6 ng·days/mL
[1]; partial response patients
  Median AUC at month 6: 191.0 ng·days/mL
  Median AUC on entry: 118.7 ng·days/mL
[1]; patient 2 (no change)
  AUC at month 6: 135.8 ng·days/mL
[1]; patient 3 (partial response)
  AUC at month 6: 139.5 ng·days/mL
[1]; patient 5 (partial response)
  AUC at month 6: 203.0 ng·days/mL
  AUC on entry: 188.4 ng·days/mL
[1]; patient 6 (partial response)
  AUC on entry: 118.3 ng·days/mL
[1]; patient 7 (progressive disease)
  AUC on entry: 105.7 ng·days/mL
[1]; patient 8 (partial response)
  AUC at month 6: 175.2 ng·days/mL
  AUC on entry: 118.7 ng·days/mL
[1]; patient 9 (progressive disease)
  AUC on entry: 138.2 ng·days/mL
[1]; patient 10 (partial response)
  AUC at month 6: 191.7 ng·days/mL
  AUC on entry: 206.6 ng·days/mL
[1]; patient 11 (progressive disease)
  AUC on entry: 289.3 ng·days/mL
[1]; patient 12 (no change)
  AUC at month 6: 179.3 ng·days/mL
  AUC on entry: 143.6 ng·days/mL
[1]; [3]
  AUC at month 6: 243.7 ng·days/mL
  AUC on entry: 36.7 ng·days/mL
[1]; patient 14 (partial response)
  AUC at month 6: 266.0 ng·days/mL
  AUC on entry: 134.6 ng·days/mL
[1]; patient 15 (no change)
  AUC at month 6: 201.7 ng·days/mL
  AUC on entry: 107.8 ng·days/mL
[1]; patient 16 (partial response)
  AUC at month 6: 190.8 ng·days/mL
  AUC on entry: 72.8 ng·days/mL
[1]; patient 17 (no change)
  AUC at month 6: 297.6 ng·days/mL
  AUC on entry: 125.5 ng·days/mL
[1]; patient 18 (no change)
  AUC at month 6: 156.1 ng·days/mL
  AUC on entry: 183.2 ng·days/mL
[1]; patient 19 (no change)
  AUC at month 6: 308.0 ng·days/mL
  AUC on entry: 137.8 ng·days/mL
[1]; progressive disease patients
  Median AUC on entry: 79.4 ng·days/mL
[2]; 19 patients
  Serious drug-related adverse events: No serious drug-related adverse events
[2]; direct questioning at each monthly attendance
  Vaginal dryness or altered libido: None of the patients reported
[2]; in vivo
  Frequency of side-effects: infrequent
  Full blood count and biochemical profile: No clinically significant changes
  Hot flushes and night sweats: not induced; also recorded: not associated with any alteration
  Injection-site events: erythema: a third patient had local erythema at the injection site on one occasion
[2]; long-acting formulation, 5 ml i.m.
  Local tolerance at the site of injection: well tolerated locally
[2]; of 19 patients
  Patients reporting minor systemic adverse events: two
[2]; one occasion each
  Injection-site events: bruising, tenderness: One patient developed bruising over the buttock and a second developed tenderness at the injection site
